US20190350918A1, “PPARy AGONIST FOR TREATMENT OF HUNTINGTON'S DISEASE” (Coherus Biosciences, Inc., priority 2017, published 2019)

Tests used:
adiponectin [1] = assay: 14-day study in healthy subjects: serum adiponectin levels; assay type: in vivo, human
Method: A study was conducted to determine the effect of INT131 on serum adiponectin levels. Thirty healthy subjects were randomly selected to receive either placebo, 0.1 mg INT131, 1 mg INT131 or 4 mg INT131 daily for 14 days. To measure adiponectin levels blood was drawn at Days 1, 4, 8 and 14.

R6/2 Huntington's mice = assay: R6/2 Huntington's mice: Huntington disease signs and symptoms; assay type: in vivo, mouse; settings: R6/2 mice; 1 mg/kg, 3 mg/kg, and 6 mg/kg
Method: INT-131 is evaluated in R6/2 Huntington's mice. R6/2 mice express mutant human exon 1 of the HTT gene. R6/2 mice develop Huntington phenotypes, which progress over time. These mice display motor and cognitive deficits, cortical cellular degeneration and striatal cellular morphological changes, as well as alterations in cortical and striatal synaptic transmission. In particular, R6/2 mice develop a loss of coordination, tremors, hypokinesis, abnormal gait, neuropathy, and premature death. After mice develop Huntington symptoms, the mice are administered INT-131 or a placebo at a regular dosing interval over a period of time. INT-131 doses include 1 mg/kg, 3 mg/kg, and 6 mg/kg. Huntington disease signs and symptoms are evaluated in each group over the period of time. After mice develop Huntington symptoms, the mice are administered INT-131 or another therapy for treating Huntington's disease at a regular dosing interval over a period of time. INT-131 doses include 1 mg/kg, 3 mg/kg, and 6 mg/kg. Other therapies include those approved for treatment and those in development for treating Huntington's disease.

HbA1c [2] = assay: 24-week study in type 2 diabetes subjects: HbA1c levels; assay type: in vivo, human
HbA1c [3] = settings: DePaoli, et al. Diabetes Care 2014; cited from earlier work
[4] = subjects taking INT131 versus pioglitazone; DePaoli, et al. Diabetes Care 2014; cited from earlier work
adiponectin [5] = assay: 24-week randomized, double-blind, placebo-controlled study in type 2 diabetes subjects: serum adiponectin levels; assay type: in vivo, human
Method: A randomized, double-blind, placebo-controlled, 24-week study was conducted in which adiponectin levels were measured. […] 367 subjects with type 2 diabetes (TD2)—a disease in which patient adiponectin levels are reduced—were randomly assigned to receive either 0.5, 1, 2 or 3 milligrams (“mg”) of INT131 besylate, 45 mg of pioglitazone or placebo daily for 24 weeks. To measure adiponectin levels blood was drawn at Weeks 0, 2, 6, 12 and 24. At baseline (Week 0) mean adiponectin levels were 1.94 micrograms per milliliter (“μg/mL”). The mean adiponectin levels at baseline and Week 24, and the mean change in adiponectin levels from baseline (Week 0) to Week 24 are disclosed in Table 1, below. The standard deviation for samples tested in each group is listed in (parenthesis). Mean baseline adiponectin values were similar for the treatment groups.

Structure (SMILES)	change in serum adiponectin levels Day 1 to Day 14 and over placebo (adiponectin [1]; 0.1 mg INT131 daily for 14 days)	change in serum adiponectin levels over placebo and from Day 1 to Day 14 (adiponectin [1]; 1 mg or 4 mg INT131 daily for 14 days)	Huntington's disease symptoms versus placebo (R6/2 Huntington's mice)	progression and development of Huntington's disease versus placebo (R6/2 Huntington's mice)	slowing progression or development and treating signs and symptoms of Huntington's disease versus another therapy (R6/2 Huntington's mice)	HbA1c levels as compared to placebo (HbA1c [2]; 1, 2, and 3 mg doses of INT131, 24 weeks)	reduction of HbA1c levels compared with 45 mg of pioglitazone (HbA1c [2]; 2 and 3 mg doses of INT131, 24 weeks)	reducing HbA1c levels compared with 45 mg of pioglitazone (HbA1c [3])	side effects compared with pioglitazone [4]	adiponectin levels, treatment comparison with pioglitazone 45 mg (adiponectin [5]; 0.5 mg, 1 mg, and 3 mg doses of INT131, p≤0.0408)	adiponectin levels, treatment comparison with placebo (adiponectin [5]; 1 mg, 2 mg, and 3 mg doses of INT131, p≤0.0109)	mean change in adiponectin from baseline to Week 24 with LOCF (adiponectin [5]; 2 mg group)	mean change in adiponectin from baseline to Week 24 with LOCF (adiponectin [5]; INT131 0.5 mg group)	mean change in adiponectin from baseline to Week 24 with LOCF (adiponectin [5]; INT131 1 mg group)	mean change in adiponectin from baseline to Week 24 with LOCF (adiponectin [5]; INT131 3 mg group)	upregulation of serum adiponectin levels compared with pioglitazone (adiponectin [5]; INT131 at either 2 or 3 mg versus 45 mg pioglitazone)	mean change in adiponectin from baseline to Week 24 with LOCF (adiponectin [5]; pioglitazone 45 mg group)
O=S(=O)(Nc1cc(Cl)c(Oc2cnc3ccccc3c2)c(Cl)c1)c1ccc(Cl)cc1Cl [INT131]	no significant change	significant change	reduced Huntington's disease symptoms	slows progression and development	as effective, or more effective	statistically significant reduction	at least as well as 45 mg of pioglitazone	equally efficacious	less edema, weight gain, and hemodilution	statistically significant	statistically significant	3.27 µg/mL	0.56 µg/mL	1.28 µg/mL	3.83 µg/mL	greater upregulation	
CCc1ccc(CCOc2ccc(CC3SC(=O)NC3=O)cc2)nc1 (centres unmarked) [Pioglitazone, pioglitazone, reference compound]																	2.96 µg/mL
